Reference: paper PMC6885504 (American Journal of Cardiovascular Drugs, 2019)
Entries after “also recorded” stand apart in the source; their conditions may differ. Like-named read-outs stand apart in the source and are kept apart here.

What was measured:
[1] = cited from earlier work
Safety assessments = type: in vivo, human; conditions: for safety and tolerability: apixaban 10 mg alone and in combination with clarithromycin IR 500 mg bid, healthy adults
[2] = type: in vivo, human
[3] = cited from earlier work; remark: listed apart in the source
CYP3A4 = conditions: cited from earlier work
[4] = during treatment with the agent alone, of 19 subjects
[5] = whole study (apixaban alone, clarithromycin alone, both together)
[6] = coadministered with multiple doses of clarithromycin vs apixaban alone

Row | Compound | change in apixaban exposure ([1]; coadministered with ketoconazole vs apixaban alone) | decrease in apixaban exposure ([1]; coadministered with rifampin vs apixaban alone) | safety and tolerability (Safety assessments) | safety and tolerability (Safety assessments; listed as apixaban) | subjects experiencing additional AEs (Safety assessments; apixaban and clarithromycin together, of 18 subjects) | subjects reporting at least one AE (Safety assessments; [4]) | bleeding-related AEs, deaths, serious AEs (Safety assessments; [5]) | intensity of adverse events (Safety assessments; [5]) | increase in apixaban AUC(0–T) [2, 6] | increase in apixaban AUC(INF) [2, 6] | increase in apixaban Cmax [2, 6] | time at which apixaban reached maximum concentration after dosing ([2]; concentration–time profiles day 1 and day 8 (Fig. 2)) | half-life [3] | oral bioavailability [3] | renal clearance as share of total systemic clearance [3] | subjects with AEs considered related to study drug (Safety assessments; [4]) | increase in AUC of midazolam (CYP3A4; clarithromycin as inhibitor) | increase in AUC of midazolam (CYP3A4; ketoconazole as inhibitor)
1 | COc1ccc(-n2nc(C(N)=O)c3c2C(=O)N(c2ccc(N4CCCCC4=O)cc2)CC3)cc1 [Apixaban] | approximately doubled; also recorded: twofold | 50% | Apixaban 10 mg alone and in combination with twice-daily clarithromycin immediate release 500 mg was safe and generally well-tolerated by healthy adult volunteers. | safe and generally well-tolerated | 22.2% | 5.3% | no bleeding-related AEs, deaths, or serious AEs | mild | 60% | 60% | 30% | 3 h | 12 h | ~50% | ~27% |  |  | 
2 | CC[C@H]1OC(=O)[C@H](C)[C@@H](O[C@H]2C[C@@](C)(OC)[C@@H](O)[C@H](C)O2)[C@H](C)[C@@H](O[C@@H]2O[C@H](C)C[C@H](N(C)C)[C@H]2O)[C@](C)(OC)C[C@@H](C)C(=O)[C@H](C)[C@@H](O)[C@]1(C)O [clarithromycin] |  |  |  |  |  | 42.1% |  |  |  |  |  |  |  |  |  | 26.3% | 260–860% | 
3 | CC(=O)N1CCN(c2ccc(OCC3COC(Cn4ccnc4)(c4ccc(Cl)cc4Cl)O3)cc2)CC1 (stereo not shown) [ketoconazole] |  |  |  |  |  |  |  |  |  |  |  |  |  |  |  |  |  | 420–1500%
